Measured values taken from patent US20040191168A1, “Tumor cell killing by cell cycle checkpoint abrogation combined with Inhibition of the classical mitogen activated protein (map) kinase pathway” (priority 2000, published 2004).
Where two headings read alike, the source gives them in different places.

How the values were obtained:
[1] = tested on: U937 cells; assay: Morphological assessment of apoptosis (Wright-Giemsa cytospins) in U937 cells; format: cell-based, human; details: for effect on apoptosis in PD184352/UCN-01-treated cells / effect on induction of apoptosis by UCN-01 and PD184352: UCN-01 150 nM + PD184352 10 μM; for effect on apoptosis in PD184352/UCN-01-treated cells: SB203580 10 μM, CHX 1 mM; for Apoptotic cells (%): PD184352 10 μM, GFX 1 μM, safingol 2 μM, mean ± SD; for effect on induction of apoptosis by UCN-01 and PD184352: 10 h, caspase inhibitor 20 μM
Protocol: (§1) Experimental Format. All of the experiments were performed using logarithmically growing cells (3-5×10^5 cells/ml). Cell suspensions were placed in sterile 25 cm^2 T-flasks (Corning, Corning, N.Y.) and incubated with MEK or PKC inhibitors for 30 min at 37° C. At the end of this period, UCN-01 (or in some cases, caffeine) was added to the suspension, and the flasks were placed in 37° C./5% CO2 incubator at various intervals, generally 18 h. In some studies, the p38 MAP kinase inhibitor SB203580 was added concurrently with MEK inhibitors. After drug treatment, cells were harvested and subjected to further analysis as described below.
Analysis of Apoptosis. […] For each condition, 5 to 10 randomly selected fields/condition were evaluated, encompassing at least 500 cells (Vrana and Grant, 2001). To confirm the results of morphological analysis, in some cases cells were also evaluated by TUNEL staining (Gorczyca et al., 1993) and assessment of oligonucleosomal DNA fragmentation of total DNA. DNA fragmentation was analyzed by 1.8% agarose gel electrophoresis as described previously (Jarvis et al., 1994). For TUNEL staining, cytocentrifuge preparations were obtained and fixed with 4% formaldehyde. The slides were treated with acetic acid/ethanol (1:2), stained with terminal transferase reaction mixture containing terminal transferase reaction buffer, 0.25 units/ ml terminal transferase, 2.5 mM CoCl2, and 2 pmol fluorescein-12-dUTP (Boehringer Mannheim, Indianapolis, Ind.), and visualized using fluorescence microscopy.

[2] = tested on: U937 cells; assay: Loss of mitochondrial membrane potential (reduced DiOC6 uptake, flow cytometry) in U937 cells; format: cell-based, human; details: for effect on mitochondrial injury (loss of ΔΨm) in PD184352/UCN-01-treated cells / effect on loss of ΔΨm by UCN-01 and PD184352: UCN-01 150 nM + PD184352 10 μM; for effect on mitochondrial injury (loss of ΔΨm) in PD184352/UCN-01-treated cells: SB203580 10 μM, CHX 1 mM; for "Low" DiOC6 (% cells): PD184352 10 μM, GFX 1 μM, safingol 2 μM, mean ± SD; for effect on loss of ΔΨm by UCN-01 and PD184352: 10 h, caspase inhibitor 20 μM
Protocol: as §1
Analysis of Mitochondrial Membrane Potential (ΔΨm). Cells 2×10^5 were incubated with 40 nM DiOC6 (Molecular Probes Inc., Eugene, Oreg.) in PBS at 37° C. for 20 min and then analyzed by flow cytometry as described previously (Wang et al., 1999).

[3] = tested on: MCF7 cells; assay: Colony forming (clonogenic) assay in MCF7 cells; format: cell-based, human; details: 25 μM PD98059, 150 nM UCN-01, replated 48 h, ± SEM
Protocol: (§2) Colony forming (clonogenic) assay. Cells were plated 36 h prior to experimentation. Cells were pre-treated with MEK1/2 inhibitor as indicated, 2 h prior to exposure. Cells were irradiated (2 Gy). After a further 48 h, cells were isolated by tryptic digestion and single cell suspensions plated on Linbro® plates at densities of 500 cells/well and 1000 cells/well. Colony formation was defined as a colony of 50 cells or greater, 10 days after plating.

[4] = tested on: DU145 cells; assay: Colony forming (clonogenic) assay in DU145 cells; format: cell-based, human; details: 25 μM PD98059, 150 nM UCN-01, replated 48 h, ± SEM
Protocol: as §2

[5] = tested on: MAPK/ERK; assay: p42 MAPK immune complex kinase assay in carcinoma cells; format: cell-based, human; details: MCF7, MDA-MB-231, T47D and DU145 cells; UCN-01 150 nM; MEK1/2 inhibitors (PD98059 25 μM, PD184352 10 μM, U0126 5 μM) given with UCN-01
Protocol: Immunoprecipitations from Lysates. Fifty microliters of Protein A agarose (Ag) slurry (25 μl bead volume) was washed twice with 1 ml PBS containing 0.1% (v/v) Tween 20, and resuspended in 0.1 ml of the same buffer. Antibodies (2 μg, 20 μl), serum (20 μl) were added to each tube and incubated (3 h, 4° C.). For pre-conjugated antibodies,10 μl of slurry (4 μg antibody) was used. Clarified equal aliquots of lysates (0.25 ml, 100 μg total protein) were mixed with Ag-conjugated antibodies in duplicate using gentle agitation (2.5 h, 4° C.). Ag-antibody-antigen complexes were recovered by centrifugation, the supernatant discarded, and washed (10 min) sequentially with 0.5 ml buffer A (twice), PBS and buffer B [25 mM Hepes, pH 7.4, 0.1 mM Na3VO4].
Assay of p42^MAPK activity. Immunoprecipitates were incubated (final volume 50 μl ) with 50 μl of buffer B containing 0.2 mM [γ-^32P]ATP (5000 cpm/pmol), 1 μM Microcystin-LR, 0.5 mg/ml myelin basic protein NP), which initiated reactions at time=0. After 20 min., 40 μl of the reaction mixtures were spotted onto a 2 cm circle of P81 paper (Whatman, Maidstone, England) and immediately placed into 180 mM phosphoric acid. Papers were washed four times (10 min each) with phosphoric acid, and once with acetone, and ^32P-incorporation into MBP was quantified by liquid scintillation spectroscopy.

[6] = tested on: T47D cells; assay: Colony forming (clonogenic) assay in T47D cells; format: cell-based, human; details: 25 μM PD98059, 150 nM UCN-01, replated 48 h, ± SEM
Protocol: as §2

[7] = tested on: MDA-MB-231 cells; assay: Colony forming (clonogenic) assay in MDA-MB-231 cells; format: cell-based, human; details: MDA-MB-231 (MDA), 25 μM PD98059, 150 nM UCN-01, replated 48 h, ± SEM
Protocol: as §2

[8] = tested on: MDA-MB-231 cells; assay: TUNEL apoptosis in MDA-MB-231 cells; format: cell-based, human; details: MDA-MB-231, 24 h; with 150 nM UCN-01; PD184352 10 μM, U0126 5 μM; FIG. 8A
Excerpt: (§3) Terminal Uridyl-Nucleotide End Labeling (TUNEL) for apoptosis.

[9] = tested on: MCF7 cells; details: MCF7, 24 h; with 150 nM UCN-01; PD184352 10 μM, U0126 5 μM; FIG. 8B
Protocol: Terminal Uridyl-Nucleotide End Labeling (TUNEL) for apoptosis. […] Cells were isolated 24 h after irradiation by trypsinizationi followed by centrifugation onto glass slides (cytospin). Terminal Uridyl-Nucleotide End Labeling (TUNEL) was performed on these cells as described previously [Wang et al., 1999; Park et al., 1999]. Randomly selected fields of fixed cells (150 cells per field, n=5 per slide) were counted initially using propidium iodide counter stain, followed by examination and counting of TUNEL positive staining cells of the same field under FITC/fluorescence light.

[10] = tested on: mammary and prostate carcinoma cells; assay: Apoptosis by double stranded DNA breaks (TUNEL) in carcinoma cells, all cell types examined; format: cell-based, human; details: for effect on potentiation of apoptosis by MEK1/2 inhibitor and UCN-01: carcinoma cells, 24 h, 25 μM PD98059 + 150 nM UCN-01, caspase inhibitor 20 μM
Excerpt: as §3

`C[C@@H]1C[C@@H]([C@H](O)CC2CC(=O)NC(=O)C2)C(=O)[C@@H](C)C1` [CHX, cycloheximide] was tested, and the “effect on apoptosis in PD184352/UCN-01-treated cells” value ([1]; U937 cells, 18 h) was “not attenuated” and the “effect on mitochondrial injury (loss of ΔΨm) in PD184352/UCN-01-treated cells” value ([2]; 18 h) was “not attenuated”.

With `Cn1c(=O)c2c(ncn2C)n(C)c1=O` [Caffeine] the “apoptosis in PD184352-treated cells” value ([1]; U937 cells, 18 h, caffeine 2 mM with PD184352 10 μM, FIG. 4A) was “substantially increased” and the “mitochondrial damage (reduction in ΔΨm) in PD184352-treated cells” value ([2]; 18 h, caffeine 2 mM with PD184352 10 μM, FIG. 4A) was “substantially increased”.

In the case of `O=c1cc(N2CCOCC2)oc2c(-c3ccccc3)cccc12` [LY294002], the “percentage of apoptotic cells” value ([1]; U937 cells, 24 hr, 100 nM UCN-01, 10 μM LY294002, FIG. 14) is reported as “about 20%”.

`COc1cccc(-c2cc(=O)c3ccccc3o2)c1N` [PD98059] was tested, and the “clonogenic survival (colonies, normalized to control unirradiated cells = 100%)” value ([3]; MCF7, 2 Gy) was 39 ± 3 %, the “clonogenic survival (colonies, normalized to control unirradiated cells = 100%)” value ([3]; MCF7, mock irradiated) was 91 ± 5% and the “clonogenic survival (colonies, normalized to control unirradiated cells = 100%)” value ([4]; DU145, 2 Gy) was 65 ± 2%. The “clonogenic survival (colonies, normalized to control unirradiated cells = 100%)” value ([4]; DU145, mock irradiated) was 99 ± 6%, the “MAPK/ERK activity (immune complex kinase assay)” value [5] was “opposed” and the “cell death (morphological features of apoptosis) on coadministration with UCN-01” value ([1]; U937 cells, 24 h, with 200 nM UCN-01, PD98059 50 μM, U0126 20 μM (FIG. 1C, D)) was “marked potentiation of cell death”. For the same compound, the “clonogenic survival (colonies, normalized to control unirradiated cells = 100%)” value ([6]; 2 Gy) was 69 ± 5%, the “clonogenic survival (colonies, normalized to control unirradiated cells = 100%)” value ([6]; mock irradiated) was 97 ± 2% and the “clonogenic survival (colonies, normalized to control unirradiated cells = 100%)” value ([7]; 2 Gy) was 44 ± 1 %. The “clonogenic survival (colonies, normalized to control unirradiated cells = 100%)” value ([7]; mock irradiated) was 91 ± 1%.

With `C[S+]([O-])c1ccc(-c2nc(-c3ccncc3)c(-c3ccc(F)cc3)[nH]2)cc1` (centres unmarked) [SB203580] the “effect on apoptosis in PD184352/UCN-01-treated cells” value ([1]; U937 cells, 18 h) was “only partially attenuated” and the “effect on mitochondrial injury (loss of ΔΨm) in PD184352/UCN-01-treated cells” value ([2]; 18 h) was “only partially attenuated”.

In the case of `CCCCCCCCCCCCCCC[C@H](O)[C@@H](N)CO` [Safingol], the “Apoptotic cells (%)” value ([1]; U937 cells, 18 h) is reported as 1.9 ± 0.2% and the “"Low" DiOC6 (% cells)” value ([2]; 18 h) is reported as 13.6 ± 0.8%.

In the case of `N#CC(=C(/N)Sc1ccccc1N)/C(C#N)=C(\N)Sc1ccccc1N` [U0126], the “MAPK/ERK activity (immune complex kinase assay)” value [5] is reported as “opposed”, the “cell death (morphological features of apoptosis) on coadministration with UCN-01” value [1] is reported as “marked potentiation of cell death” and the “apoptosis in combination with UCN-01” value [8] is reported as “enhanced apoptosis”. For the same compound, the “apoptosis in combination with UCN-01” value [9] was “enhanced apoptosis”.

For IETD, the “effect on induction of apoptosis by UCN-01 and PD184352” value ([1]; U937 cells) was “ineffective”, the “effect on loss of ΔΨm by UCN-01 and PD184352” value [2] was “ineffective” and the “effect on potentiation of apoptosis by MEK1/2 inhibitor and UCN-01” value [10] was “partially attenuated”.

In the case of ZVAD-fmk, the “effect on induction of apoptosis by UCN-01 and PD184352” value ([1]; U937 cells) is reported as “blocked”, the “effect on loss of ΔΨm by UCN-01 and PD184352” value [2] is reported as “blocked” and the “effect on potentiation of apoptosis by MEK1/2 inhibitor and UCN-01” value [10] is reported as “abolished”.

With bisindolylmaleimide [GFX] the “Apoptotic cells (%)” value ([1]; U937 cells, 18 h) was 1.9 ± 0.2%, the “"Low" DiOC6 (% cells)” value ([2]; 18 h) was 13.2 ± 0.6% and the “apoptosis after 24 h” value ([10]; all carcinoma cell types examined, bisindolylmaleimide 1 μM in place of UCN-01) was “did not mimic the actions of UCN-01”.
